Entries after “also recorded” stand apart in the source; their conditions may differ. Where no end group is shown, it is not given here. [ ]: non-standard residue; d: D form. The star is where a group is joined. Biotin = O=C1N[C@H]2[C@H](CS[C@H]2CCCCC(=O)*)N1; sY = N[C@@H](Cc1ccc(OS(=O)(=O)O)cc1)C(=O)O; pY = N[C@@H](Cc1ccc(OP(=O)(O)O)cc1)C(=O)O

We go through 14 molecules from patent publication US6908734B2, “Sulfated CCR5 peptides for HIV-1 infection” (priority 2000, dated 2005).

In one experiment the test system is gp120JR-FL/CD4-IgG2. Description: CCR5 Nt peptide ELISA with gp120JR-FL/CD4-IgG2. To be noted: for Avidity for gp120JR-FL/CD4-IgG2 relative to 2-18 (fold lower): ELISA; for Binding of gp120JR-FL/CD4-IgG2 to peptide (ELISA): peptide 1 μg/ml on streptavidin plate. The format is binding, HIV-1. (In general: In an ELISA, binding on a coated surface is turned into a signal by an enzyme label.)

The target of experiment [1] is T1, gp120JR-FL/CD4-IgG2 binding to the sulfopeptide 2-18 (Homo sapiens, UniProt P51681).
T1 construct: a peptide spanning CCR5 residues 2-18 and containing sulfotyrosines in positions 10 and 14; host or cells: peptide synthetic
In words: Competition ELISA: gp120JR-FL/CD4-IgG2 binding to sulfopeptide 2-18. The arrangement: species or system HIV-1. To be noted: complex 1 nM, up to supraphysiologic concentrations. On the procedure:
In a competition ELISA, peptides were captured onto the plates as described above. Inhibitor or assay buffer was added for 1 h prior to addition of gp120JR-FL/CD4-IgG2 complex (1 nM) for an additional h at room temperature. The assay was then completed as described above. Direct binding of anti-CCR5 murine MAbs to the peptides was examined as described above except that MAb was substituted for gp120/CD4-IgG2 complex and a goat anti-mouse HRP-coupled antibody was used for detection.

The subject of experiment [2] is gp120JR-FL/CD4-IgG2 complex binding to CCR5. Description: Inhibition of gp120JR-FL/CD4-IgG2 complex binding to L1.2-CCR5+ cells (flow cytometry). The format is cell-based, HIV-1. To be noted: gp120 100 nM, biotinylated CD4-IgG2 50 nM, different concentrations of peptide. How it is done:
A gp120/CD4 complex formed from monomeric gp120 (100 nM) and biotinylated CD4-IgG2 (50 nM) was added to 1×10^6 L1.2-CCR5^+ cells in the presence of different concentrations of peptide (Olson et al. J. Virol. 73:4145, 1999). CD4-IgG2 is tetrameric and therefore binds four molecules of gp120, which increases binding of the complex to CCR5 (Allaway et al. AIDS Res. Hum. Retroviruses 11:533, 1995). The mean fluorescence intensity (m.f.i.) was measured by flow cytometry after addition of phycoerythrin (PE)-labeled streptavidin (Becton Dickinson, San Jose, Calif.). Inhibition of gp120/CCR5 binding was calculated: […].

In a further experiment the test system is PA10 binding to CCR5. In words: Inhibition of anti-CCR5 MAb PA10 binding to L1.2-CCR5 cells. The format is cell-based, mouse. To be noted: MAb 50 nM, peptide 100 μM. How it is done: L1.2-CCR5 cells (1×10^6) were incubated with anti-CCR5 MAb (50 nM)±peptide (100 μM). MAb binding was detected using a PE-labeled goat anti-mouse antibody (Caltag Laboratories, Burlingam, Calif.). The m.f.i value was measured by flow cytometry as described (Olson et al. J. Virol. 73:4145, 1999). MAb binding was calculated as above.

For the next experiment, the system named is gp120JR-FL/sCD4. Description: BIAcore: gp120JR-FL/sCD4 binding to immobilized biotinylated CCR5 Nt peptide. The arrangement: species or system HIV-1. To be noted: protein 100 nM; 400 RU biotinylated peptide on streptavidin chip. On the procedure: (§1) Streptavidin-coated sensor chips (BIAcore AB, Sweden) were conditioned with five injections of regeneration solution (1M NaCl, 50 mM NaOH) and equilibrated with HBS-EP buffer (10 mM HEPES, 150 mM NaCl, […], 0.005% polysorbate 20) as recommended by the manufacturer. Biotinylated peptides were then immobilized on the chip by injection of peptide (100 nM) in HBS-EP buffer, followed by an injection of regeneration solution and equilibration with HBS-EP buffer. 400 resonance units (RU) of peptide were bound to the sensor chip surface. Solutions of the following proteins (100 nM) were passed over the sensor chip surface: gp120, sCD4, gp120/sCD4, PA8, PA10 and 2D7. […] Following injection of each solution the chip was regenerated and equilibrated as described above.
Biotinylated peptide was attached to the streptavidin-coated gold surface of a sensor chip and solutions containing different gp120/sCD4 complexes were flowed over the immobilized peptide. Adsorption of the complex due to complex/peptide binding was detected by an increase in surface plasmon resonance signal (RU), which reports changes in the effective refraction index very near the gold surface of the sensor chip (Schuck Ann. Rev. Biophys Biomol Struct 26:541, 1997). […]
Binding of gp120/CD4-IgG2 complex and MAbs to CCR5 Nt-based peptides was measured as previously described. […]

In another experiment the test system is PA10. Description: BIAcore: PA10 on immobilized peptide. Format: binding, mouse. To be noted: MAb 100 nM. On the procedure: as §1
(Surface plasmon resonance follows binding to a sensor surface in real time, without labels.)

Take “6-16: CCR5 residues 6-16, sulfotyrosines in positions 10 and 14, GAG spacer, biotinylated lysine (SSPI[sY]DIN[sY]YTGAG-{K(biotin)}; UniProt P51681 6-16, looked up, fragment)”: in the experiment with gp120JR-FL/CD4-IgG2, the “Avidity for gp120JR-FL/CD4-IgG2 relative to 2-18 (fold lower)” value was “at least ten-fold less avidly”.
As to “8-15: CCR5 residues 8-15, sulfotyrosines in positions 10 and 14, GAG spacer, biotinylated lysine (PI[sY]DIN[sY]YGAG-{K(biotin)}; UniProt P51681 8-15, looked up, fragment)”, the “Avidity for gp120JR-FL/CD4-IgG2 relative to 2-18 (fold lower)” value in the experiment with gp120JR-FL/CD4-IgG2 is on record as “at least ten-fold less avidly”.
For “10-18(11A/18A): peptide 10-18 with residues Asp-11 and Glu-18 substituted for alanines ([sY]AIN[sY]YTSA; not fully specified (C-terminus); UniProt P51681 10-18, looked up, variant D11A E18A)”, the “Binding of gp120JR-FL/CD4-IgG2 to peptide (ELISA)” value with gp120JR-FL/CD4-IgG2 is “only weakly bound”.
Consider “10-18: CCR5 residues 10-18 (YDINYYTSE), sulfotyrosines in positions 10 and 14, GAG spacer, biotinylated lysine ([sY]DIN[sY]YTSEGAG-{K(biotin)})”, for which, in the experiment with gp120JR-FL/CD4-IgG2, the “Avidity for gp120JR-FL/CD4-IgG2 relative to 2-18 (fold lower)” value is roughly 3 fold and the “Binding of gp120JR-FL/CD4-IgG2 to peptide (ELISA)” value is “significant binding; also recorded: avidly bound”.
With MIP-1α: CC-chemokine known to bind CCR5, the “Inhibition of gp120JR-FL/CD4-IgG2 binding to the sulfopeptide 2-18” value (“Inhibition … to the sulfopeptide 2-18” below) in experiment [1] was “not inhibited”.
As for RANTES: CC-chemokine known to bind CCR5, the “Inhibition … to the sulfopeptide 2-18” value in experiment [1] is “not inhibited”.
Take “S-3/10/14: tyrosine-sulfated peptide spanning amino acids 2-18 of the CCR5 Nt, sulfo-tyrosines in positions 3, 10 and 14 (D[sY]QVSSPI[sY]DIN[sY]YTSE; UniProt P51681 2-18, looked up, fragment)”: in experiment [2], the “Inhibition of gp120JR-FL/CD4-IgG2 binding to CCR5+ cells” value is “inhibited complex binding to the cells in a dose-dependent manner”. In the experiment with PA10 binding to CCR5, the “Inhibition of PA10 binding to CCR5+ cells” value is “inhibited”.
Take “S-10/14: tyrosine-sulfated peptide spanning amino acids 2-18 of the CCR5 Nt, sulfo-tyrosines in positions 10 and 14 (DYQVSSPI[sY]DIN[sY]YTSE; UniProt P51681 2-18, looked up, fragment)”: in experiment [2], the “Inhibition of gp120JR-FL/CD4-IgG2 binding to CCR5+ cells” value is “inhibited complex binding to the cells in a dose-dependent manner”.
Same read-out and setting: the value for “S-10: peptide spanning amino acids 2-18 of the CCR5 Nt, sulfo-tyrosine in position 10 (DYQVSSPI[sY]DINYYTSE; UniProt P51681 2-18, looked up, fragment)” was “no inhibitory activity”; that for “S-14: peptide spanning amino acids 2-18 of the CCR5 Nt, sulfo-tyrosine in position 14 (DYQVSSPIYDIN[sY]YTSE; not fully specified; UniProt P51681 2-18, looked up, fragment)” was “no inhibitory activity”; that for “TS-10/14: peptide spanning amino acids 10-14 of CCR5, two sulfo-tyrosine residues ([sY]DIN[sY])” was “did not inhibit”.
Regarding “bP-10/14: biotinylated version of P-10/14 with C-terminal GAG spacer preceding a biotinylated lysine; apparently as 2-18(P) (DYQVSSPI[pY]DIN[pY]YTSEGAGK(Biotin))”, in the experiment on gp120JR-FL/sCD4, the “Association of gp120JR-FL/sCD4 complex with immobilized peptide (RU)” value is given as “complete lack of association”.
On to “bS-10/14: biotinylated version of S-10/14 with C-terminal GAG spacer preceding a biotinylated lysine; apparently as 2-18 (DYQVSSPI[sY]DIN[sY]YTSEGAGK(Biotin))”, for which the “Association of gp120JR-FL/sCD4 complex with immobilized peptide (RU)” value in the experiment with gp120JR-FL/sCD4 is reported as “significant increase in RU”. In addition, in the experiment on PA10, the “Association of PA10 with immobilized peptide (BIAcore)” value is given as “associate”.

B1: MIP-1β: CC-chemokine known to bind CCR5 (protein, UniProt P13236 24-92, looked up)
C-C motif chemokine 4: APMGSDPPTACCFSYTARKLPRNFVVDYYETSSLCSQPAVVFQTKRSKQVCADPSESWVQEYVYDLELN
Regarding B1, in experiment [1], the “Inhibition … to the sulfopeptide 2-18” value is reported as “not inhibited”.
